Data taken from ChEMBL document CHEMBL1201862, “PubChem BioAssay data set” (2004).
Each block holds one compound with its values, some of them ahead of it. Calls of active or inactive are those of the source.

Assays:
[1] = target: Dual specificity tyrosine-phosphorylation-regulated kinase 1A (Rattus norvegicus, UniProt Q63470); format: biochemical, Homo sapiens
Escherichia coli = experiment: microbe, parasite or virus in culture
HEK293 = experiment: cells; format: functional, cell-based; settings: Homo sapiens
[2] = target: T1, Nuclear receptor subfamily 0 group B member 1 (Homo sapiens, UniProt P51843); experiment: Luminescence-based cell-based high throughput dose response assay for inhibitors of the orphan nuclear receptor subfamily 0, group B, member 1 (DAX1; NR0B1). [Related pubchem assays (depositor defined):AID504766, AID504790]; format: functional
T1 sequence (P51843 whole entry): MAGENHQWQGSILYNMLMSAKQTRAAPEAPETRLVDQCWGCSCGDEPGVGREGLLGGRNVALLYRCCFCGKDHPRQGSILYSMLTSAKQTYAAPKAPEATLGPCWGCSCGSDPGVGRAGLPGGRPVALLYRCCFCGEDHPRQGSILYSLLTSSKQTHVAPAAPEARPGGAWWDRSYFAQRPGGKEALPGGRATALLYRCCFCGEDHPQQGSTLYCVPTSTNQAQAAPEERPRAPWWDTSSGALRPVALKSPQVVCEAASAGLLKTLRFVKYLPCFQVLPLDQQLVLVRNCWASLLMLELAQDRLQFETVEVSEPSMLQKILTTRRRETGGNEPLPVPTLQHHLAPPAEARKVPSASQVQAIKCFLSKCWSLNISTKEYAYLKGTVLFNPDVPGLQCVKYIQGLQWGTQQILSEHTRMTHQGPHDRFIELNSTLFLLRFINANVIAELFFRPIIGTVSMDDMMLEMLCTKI

[3] = target: T2, Sentrin-specific protease 6 (Homo sapiens, UniProt Q9GZR1); experiment: SAR Analysis of small molecule inhibitors of Sentrin-specific protease 6 (SENP6) using a Luminescent assay. [Related pubchem assays (depositor defined):AID2582, AID2599]; format: functional
T2 sequence (Q9GZR1 whole entry): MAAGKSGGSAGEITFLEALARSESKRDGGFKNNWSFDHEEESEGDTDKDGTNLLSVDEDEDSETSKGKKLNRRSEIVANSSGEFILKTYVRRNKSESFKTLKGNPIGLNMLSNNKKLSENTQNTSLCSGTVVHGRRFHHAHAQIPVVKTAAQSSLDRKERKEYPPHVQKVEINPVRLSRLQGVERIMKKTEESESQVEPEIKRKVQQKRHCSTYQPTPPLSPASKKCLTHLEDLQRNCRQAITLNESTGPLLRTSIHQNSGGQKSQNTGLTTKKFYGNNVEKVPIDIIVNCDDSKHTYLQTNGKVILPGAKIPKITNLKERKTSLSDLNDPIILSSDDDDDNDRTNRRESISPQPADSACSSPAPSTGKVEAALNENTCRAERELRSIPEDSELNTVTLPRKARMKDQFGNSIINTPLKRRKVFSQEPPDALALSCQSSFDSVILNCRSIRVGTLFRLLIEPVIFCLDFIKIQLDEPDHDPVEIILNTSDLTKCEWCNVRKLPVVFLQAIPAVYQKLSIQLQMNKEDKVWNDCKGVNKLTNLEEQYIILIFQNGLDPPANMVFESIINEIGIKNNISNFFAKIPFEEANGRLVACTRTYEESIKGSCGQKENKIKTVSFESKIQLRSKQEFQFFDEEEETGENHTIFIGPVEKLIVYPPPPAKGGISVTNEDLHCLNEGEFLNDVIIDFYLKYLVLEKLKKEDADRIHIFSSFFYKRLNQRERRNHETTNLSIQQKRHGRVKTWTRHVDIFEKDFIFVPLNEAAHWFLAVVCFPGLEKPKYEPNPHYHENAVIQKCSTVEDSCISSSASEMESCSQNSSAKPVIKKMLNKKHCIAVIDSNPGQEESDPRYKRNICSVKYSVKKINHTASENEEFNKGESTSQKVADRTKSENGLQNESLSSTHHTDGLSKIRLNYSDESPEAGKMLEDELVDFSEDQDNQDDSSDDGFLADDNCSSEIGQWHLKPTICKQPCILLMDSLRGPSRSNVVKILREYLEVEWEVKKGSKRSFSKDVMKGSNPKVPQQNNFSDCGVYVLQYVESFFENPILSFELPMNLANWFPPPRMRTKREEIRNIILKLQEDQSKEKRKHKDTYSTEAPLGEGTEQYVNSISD

[4] = target: T3, Sentrin-specific protease 8 (Homo sapiens, UniProt Q96LD8); experiment: inhibition of sentrin protease 8 – biochemical, luminescence, set 2, SAR follow-up (AID 588601); format: functional
T3 sequence (Q96LD8 whole entry): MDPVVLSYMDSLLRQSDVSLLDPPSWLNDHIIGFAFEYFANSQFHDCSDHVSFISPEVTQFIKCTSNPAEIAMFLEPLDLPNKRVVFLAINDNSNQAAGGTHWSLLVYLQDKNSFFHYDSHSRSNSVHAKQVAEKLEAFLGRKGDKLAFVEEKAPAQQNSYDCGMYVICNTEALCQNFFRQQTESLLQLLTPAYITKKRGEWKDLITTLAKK

Caspase-3 [5] = target: T4, Caspase-3 (Homo sapiens, UniProt P42574); experiment: SAR Analysis of small molecule inhibitors of Sentrin-specific proteases (SENPs) using a Caspase-3 Selectivity assay. [Related pubchem assays (depositor defined):AID2540, AID2599, AID434973, AID489001]; format: functional
T4 sequence (P42574 whole entry): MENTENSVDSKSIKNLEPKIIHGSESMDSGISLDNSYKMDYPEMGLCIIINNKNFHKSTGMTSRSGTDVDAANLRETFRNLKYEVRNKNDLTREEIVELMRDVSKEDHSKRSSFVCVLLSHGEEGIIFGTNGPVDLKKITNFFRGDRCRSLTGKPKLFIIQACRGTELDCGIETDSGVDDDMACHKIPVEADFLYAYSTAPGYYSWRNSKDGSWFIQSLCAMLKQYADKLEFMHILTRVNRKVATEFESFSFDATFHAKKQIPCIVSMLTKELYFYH

Caspase-3 [6] = target: T4, Caspase-3; experiment: inhibition of recombinant caspase-3 activity – biochemical, luminescence, set 2, selectivity assay for SENP protease inhibitor project, SAR follow-up (AID 588599); format: functional
[7] = target: T3, Sentrin-specific protease 8; experiment: inhibition of human SENP8 cleavage activity – biochemical, luminescence, SAR follow-up (AID 504501); format: functional
[8] = target: T5, Sentrin-specific protease 7 (Homo sapiens, UniProt Q9BQF6); experiment: inhibition of human SENP7 cleavage activity – biochemical, luminescence, SAR follow-up (AID 504497); format: functional
T5 sequence (Q9BQF6 whole entry): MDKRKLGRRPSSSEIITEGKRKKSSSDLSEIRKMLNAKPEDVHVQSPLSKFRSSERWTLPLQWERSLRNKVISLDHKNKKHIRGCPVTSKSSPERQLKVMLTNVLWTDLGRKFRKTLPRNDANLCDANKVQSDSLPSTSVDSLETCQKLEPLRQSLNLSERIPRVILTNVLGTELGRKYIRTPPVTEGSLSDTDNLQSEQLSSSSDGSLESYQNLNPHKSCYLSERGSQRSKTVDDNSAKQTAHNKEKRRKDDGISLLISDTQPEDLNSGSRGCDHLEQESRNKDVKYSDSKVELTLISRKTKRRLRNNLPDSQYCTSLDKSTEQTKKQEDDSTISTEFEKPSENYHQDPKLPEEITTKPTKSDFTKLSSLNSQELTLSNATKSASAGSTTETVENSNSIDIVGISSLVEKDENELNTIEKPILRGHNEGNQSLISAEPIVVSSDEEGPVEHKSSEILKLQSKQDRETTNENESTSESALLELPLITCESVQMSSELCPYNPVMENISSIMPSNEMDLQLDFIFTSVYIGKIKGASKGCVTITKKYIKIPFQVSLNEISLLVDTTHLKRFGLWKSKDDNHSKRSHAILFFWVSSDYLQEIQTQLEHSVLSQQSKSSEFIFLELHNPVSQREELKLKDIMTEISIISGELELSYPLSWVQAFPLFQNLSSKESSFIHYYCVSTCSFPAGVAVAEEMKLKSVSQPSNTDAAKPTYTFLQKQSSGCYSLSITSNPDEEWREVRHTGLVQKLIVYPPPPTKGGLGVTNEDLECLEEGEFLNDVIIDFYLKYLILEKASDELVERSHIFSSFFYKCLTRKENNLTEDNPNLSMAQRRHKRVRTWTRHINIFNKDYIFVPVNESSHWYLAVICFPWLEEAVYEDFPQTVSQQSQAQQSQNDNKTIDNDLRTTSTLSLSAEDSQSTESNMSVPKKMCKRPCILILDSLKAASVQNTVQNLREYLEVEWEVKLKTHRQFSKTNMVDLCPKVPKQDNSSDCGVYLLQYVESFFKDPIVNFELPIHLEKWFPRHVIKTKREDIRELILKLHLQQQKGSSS

[9] = target: T2, Sentrin-specific protease 6; experiment: inhibition of human SENP6 catalytic domain – biochemical, luminescence, set 2, SAR follow-up (AID 588598); format: functional
[10] = target: T5, Sentrin-specific protease 7; experiment: inhibition of human SENP7 cleavage activity – biochemical, luminescence, set 2, SAR follow-up (AID 588600); format: functional
[11] = target: T6, Rac GTPase-activating protein 1 (Homo sapiens, UniProt Q9H0H5); experiment: blockers of MgcRacGAP-driven Rac1 GTP hydrolysis – biochemical, ADP Hunter fluorescence, primary and confirmatory, confirmation (AID 624330); format: functional
T6 sequence (Q9H0H5 whole entry): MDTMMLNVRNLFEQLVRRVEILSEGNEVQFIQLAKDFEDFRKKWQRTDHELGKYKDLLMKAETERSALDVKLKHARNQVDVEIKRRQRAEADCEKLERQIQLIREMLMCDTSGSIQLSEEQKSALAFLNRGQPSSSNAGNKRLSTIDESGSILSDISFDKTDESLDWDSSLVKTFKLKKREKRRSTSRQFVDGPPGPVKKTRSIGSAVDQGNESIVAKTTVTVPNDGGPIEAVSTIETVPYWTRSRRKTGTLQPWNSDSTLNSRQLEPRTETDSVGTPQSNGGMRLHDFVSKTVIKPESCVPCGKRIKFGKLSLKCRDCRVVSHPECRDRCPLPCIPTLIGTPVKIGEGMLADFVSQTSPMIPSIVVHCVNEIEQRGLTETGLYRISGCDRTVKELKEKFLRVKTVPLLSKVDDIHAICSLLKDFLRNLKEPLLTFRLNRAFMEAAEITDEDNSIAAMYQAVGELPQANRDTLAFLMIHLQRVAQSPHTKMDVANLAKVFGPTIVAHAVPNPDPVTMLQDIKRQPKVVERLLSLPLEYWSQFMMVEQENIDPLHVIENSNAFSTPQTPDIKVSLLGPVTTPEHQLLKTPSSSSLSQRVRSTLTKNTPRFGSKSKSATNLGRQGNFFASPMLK

[12] = target: T7, Zinc finger protein mex-5 (Caenorhabditis elegans, UniProt Q9XUB2); experiment: potency of MEX-5 RNA-binding blockers – biochemical, C. elegans, fluorescence polarization, dose response (AID 1960)
T7 sequence (Q9XUB2 whole entry): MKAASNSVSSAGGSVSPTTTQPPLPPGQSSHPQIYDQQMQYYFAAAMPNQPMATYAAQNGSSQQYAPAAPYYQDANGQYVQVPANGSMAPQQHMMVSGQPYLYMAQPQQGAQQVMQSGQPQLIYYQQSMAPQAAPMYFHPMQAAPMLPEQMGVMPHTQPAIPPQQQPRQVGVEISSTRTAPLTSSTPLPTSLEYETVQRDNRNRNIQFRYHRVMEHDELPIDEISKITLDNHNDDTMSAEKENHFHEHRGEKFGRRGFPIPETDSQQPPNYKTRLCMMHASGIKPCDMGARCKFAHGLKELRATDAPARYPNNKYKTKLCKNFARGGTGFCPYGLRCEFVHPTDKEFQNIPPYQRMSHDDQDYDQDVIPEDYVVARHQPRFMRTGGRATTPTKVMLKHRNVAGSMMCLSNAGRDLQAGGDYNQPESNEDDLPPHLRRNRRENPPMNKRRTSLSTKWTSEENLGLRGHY

[13] = target: Induced myeloid leukemia cell differentiation protein Mcl-1 (Homo sapiens, UniProt Q07820); format: functional
[14] = target: Glucose-6-phosphate 1-dehydrogenase (Homo sapiens, UniProt P11413); experiment: inhibition of Homo sapiens G6PD, dose series – biochemical, fluorescence, selectivity assay for P. falciparum G6PD inhibitor project, dose response (AID 504792); format: functional
[15] = target: T8, RNA-binding protein pos-1 (Caenorhabditis elegans, UniProt G5EF15); experiment: disruptors of C. elegans POS-1 RNA interaction – biochemical, fluorescence polarization, dose response (AID 1964);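 also: purified POS-1 fused to maltose binding protein made in E. coli; potency of compounds blocking POS-1 binding to fluorescent RNA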
T8 sequence (G5EF15 whole entry): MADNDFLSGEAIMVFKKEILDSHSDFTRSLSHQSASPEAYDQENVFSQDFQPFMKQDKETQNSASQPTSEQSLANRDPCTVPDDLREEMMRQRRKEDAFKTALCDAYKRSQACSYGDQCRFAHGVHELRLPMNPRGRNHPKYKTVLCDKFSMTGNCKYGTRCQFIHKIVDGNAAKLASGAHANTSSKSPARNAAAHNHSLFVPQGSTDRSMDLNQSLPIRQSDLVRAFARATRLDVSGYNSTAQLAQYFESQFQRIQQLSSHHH

Sequence of Glucose-6-phosphate 1-dehydrogenase (P11413 whole entry, the tested form may be a part): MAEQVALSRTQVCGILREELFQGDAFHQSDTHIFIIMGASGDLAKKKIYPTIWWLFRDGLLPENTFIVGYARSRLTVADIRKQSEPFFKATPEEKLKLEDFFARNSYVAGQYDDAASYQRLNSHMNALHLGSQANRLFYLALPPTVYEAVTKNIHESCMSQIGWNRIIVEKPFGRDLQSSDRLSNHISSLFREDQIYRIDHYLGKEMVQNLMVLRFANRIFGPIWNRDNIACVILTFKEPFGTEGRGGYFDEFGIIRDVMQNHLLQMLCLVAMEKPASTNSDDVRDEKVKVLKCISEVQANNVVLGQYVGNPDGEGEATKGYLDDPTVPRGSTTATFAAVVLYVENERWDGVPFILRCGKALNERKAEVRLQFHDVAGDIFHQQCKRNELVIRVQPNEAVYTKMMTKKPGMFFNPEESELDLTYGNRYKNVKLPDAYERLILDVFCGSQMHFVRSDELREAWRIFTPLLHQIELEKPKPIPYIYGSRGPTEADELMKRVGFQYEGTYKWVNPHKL
Sequence of Induced myeloid leukemia cell differentiation protein Mcl-1 (Q07820 whole entry): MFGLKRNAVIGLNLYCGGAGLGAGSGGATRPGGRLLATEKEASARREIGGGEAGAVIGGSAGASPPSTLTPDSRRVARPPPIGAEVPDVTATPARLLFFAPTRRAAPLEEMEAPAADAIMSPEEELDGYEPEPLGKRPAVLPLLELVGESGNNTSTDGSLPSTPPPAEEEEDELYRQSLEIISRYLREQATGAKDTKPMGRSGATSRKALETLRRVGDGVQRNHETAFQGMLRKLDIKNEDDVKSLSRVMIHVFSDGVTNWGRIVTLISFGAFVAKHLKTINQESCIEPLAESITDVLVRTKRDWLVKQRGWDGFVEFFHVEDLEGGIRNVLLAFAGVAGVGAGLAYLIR

- AC50 [1]: 15.5 µM (active)
SMILES: Cn1c(C(=O)NC2CC2)cc2c(=O)n(C)c3ccccc3c21

SMILES: COc1ccc(S(=O)(=O)NCc2ccco2)c2ccccc12
- AC50 (Escherichia coli): 28.5 µM (active)

- AC50 [1]: 3.12 µM (active)
SMILES: Oc1ccc(-c2nc3ccccc3nc2-c2ccc(O)cc2O)c(O)c1

SMILES: COc1ccccc1-c1nnc(-c2ccc(C)cc2)o1
- IC50 (HEK293): > 67.5 µM (inactive)
- IC50 [2]: > 67.5 µM (inactive)

- IC50 [3]: 1.4 µM (active)
- IC50 (Caspase-3 [5]): 1.1 µM (active)
- IC50 (Caspase-3 [6]): 10.4 µM (active)
- IC50 [8]: 1.1 µM (active)
- IC50 [9]: 10.6 µM (active)
- IC50 [10]: 10.3 µM (active)
SMILES: O=C(Nc1nc2ccccc2s1)c1ccsc1
- IC50 [4]: 9.92 µM (active)
- IC50 [7]: 1.4 µM (active)

- IC50 (Caspase-3 [6]): > 99 µM (inactive)
- IC50 [9]: > 99 µM (inactive)
- IC50 [10]: > 99 µM (inactive)
SMILES: O=C(Nc1nc2ccccc2s1)c1cccc(S(=O)(=O)N2CCN(c3ccccc3)CC2)c1
- IC50 [4]: > 99 µM (inactive)

SMILES: Cc1ccccc1C(=O)N1CCC(C(=O)Nc2ccccc2Cl)CC1
- AC50 (Escherichia coli): 27.8 µM (active)

SMILES: Cn1c(N2CCOCC2)c(/C=N/O)c2ccccc21
- IC50 [11]: 74.5 µM (active)
- IC50 (HEK293): > 67.5 µM (inactive)
- IC50 [2]: > 67.5 µM (inactive)

SMILES: COc1cc(O)c(C(=O)O)c(-c2cc(O)c(O)cc2C)c1 [ALTENUSIN]
- EC50 [12]: > 300 µM (inconclusive)
- IC50 [13]: 4.15 µM (active)
- IC50 [14]: 31 µM (inactive)
- EC50 [15]: 31 µM (active)
